For one data set, the system named is rape Brassica napus. In words: Petri dish culture, growth inhibition of root and stalk of rape. Type of data set: in vivo. Conditions: Brassica napus, 120 h, 5 days; for inhibition at 1 µg/mL: 1 mg/L; for inhibition at 10 µg/mL: 10 mg/L. On the procedure:
(§1) The synthesized compounds were tested for the herbicidal activity on model plants including a monocotyledon (barnyard grass) and a dicotyledon (rape) by the reported Petri dish culture method. The percent inhibitory ratios against the growth of root and stalk of barnyard grass and rape at different dosage concentrations were calculated, and the compounds with appreciable inhibitory potencies are selected and shown in Table 1 and Table 2. Several features of the inhibitory activities can be derived. First, all the compounds have stronger inhibition against the growth of the dicotyledon rape than against the monocotyledon barnyard grass, showing appreciable selectivity.
(§2) The herbicidal activity was examined for the growth inhibition effect of the dicotyledon rape Brassica napus and the monocotyledon barnyard grass Echinochloa crusgalli, using the standard Petri dish test and the pre-emergence treatment procedure. […] Nine mL of the solution was added in a Petri dish of 9 cm diameter and two pieces of filter paper were placed on the dish bottom. Twenty seeds each of rape and barnyard grass were placed on the filter paper. The covered Petri dish was transferred into an artificial climate incubator (MGC-400H, Shantou Keyi Co., Ltd., China), where the conditions were controlled at temperature 23 ± 1 °C, humidity 60 ± 5%, light intensity 10 Klux, and photoperiod 12 h/day. The incubation was continued for 5 days, then the lengths of 10 roots and 10 stems for each type of plant were measured and the mean values were calculated. The percent inhibitory ratios were calculated relative to control plants exposing to distilled water instead of the compound solution.

Data set [1] has as its system barnyard grass Echinochloa crusgalli. The experiment in a line: Petri dish culture, growth inhibition of root and stalk of barnyard grass. Type of data set: in vivo. Particulars: Echinochloa crus-galli, 120 h, 5 days; for inhibition at 1 µg/mL: 1 mg/L; for inhibition at 10 µg/mL: 10 mg/L. The procedure: as §1, §2
Setting [2] is: root growth, read-out: Relative inhibition, root.
Setting [3] is: stalk growth, read-out: Relative inhibition, stalk.

Each structure is given as a SMILES string. Read-outs that look alike come from different tables or passages of the source.

Experimental findings from paper PMC6268642, “Facile Synthesis and Herbicidal Evaluation of 4H-3,1-Benzoxazin-4-ones and 3H-Quinazolin-4-ones with 2-Phenoxymethyl Substituents” (Molecules, 2012) are described below.

Turning to `Cc1ccc2nc(COc3ccccc3)oc(=O)c2c1` [3e, 6-Methyl-2-(phenoxymethyl)-4H-3,1-benzoxazin-4-one], the melting point lay within 133.3 to 135.1 °C. Also, in the data set on rape Brassica napus (setting [2]), the inhibition at 1 µg/mL came to 55.3% and the inhibition at 10 µg/mL stood at 92.3%. For the same molecule, in the data set with rape Brassica napus (setting [3]), the inhibition at 1 µg/mL was 11.6% and the inhibition at 10 µg/mL was 81.6%. Moreover, in data set [1] (setting [2]), the inhibition at 1 µg/mL was found to be 26.1% and the inhibition at 10 µg/mL came out at 71.4%. Besides, in data set [1] (setting [3]), the inhibition at 1 µg/mL is -17.2% and the inhibition at 10 µg/mL amounted to 31.1%.

On to `O=c1oc(COc2ccc(F)cc2)nc2cccc(Cl)c12` [3s, 5-Chloro-2-((4-fluorophenoxy)methyl)-4H-3,1-benzoxazin-4-one], for which the melting point lay in the range of 155.9 to 156.7 °C. In the data set with rape Brassica napus (setting [2]), the inhibition at 1 µg/mL is 72.8% and the inhibition at 10 µg/mL is 98.6%. Besides, in the data set with rape Brassica napus (setting [3]), the inhibition at 1 µg/mL was 25.7% and the inhibition at 10 µg/mL was found to be 94.8%. Besides, in data set [1] (setting [2]), the inhibition at 1 µg/mL amounted to 61.1% and the inhibition at 10 µg/mL came out at 91%. In data set [1] (setting [3]), the inhibition at 1 µg/mL amounted to 11.8% and the inhibition at 10 µg/mL was 46.3%.

On to `Nn1c(COc2ccc(Cl)cc2Cl)nc2cccc(Cl)c2c1=O` [4g, 3-Amino-5-chloro-2-((2,4-dichlorophenoxy)methyl)-3H-quinazolin-4-one], for which the melting point was in the range of 201.5 to 202 °C. Further, in the data set with rape Brassica napus (setting [2]), the inhibition at 1 µg/mL came out at 5.7% and the inhibition at 10 µg/mL was 17.5%. Besides, in the data set on rape Brassica napus (setting [3]), the inhibition at 1 µg/mL turned out to be 10% and the inhibition at 10 µg/mL is 44.9%. Further, in data set [1] (setting [2]), the inhibition at 1 µg/mL is 11.8% and the inhibition at 10 µg/mL worked out at 25.8%. Also, in data set [1] (setting [3]), the inhibition at 1 µg/mL was -5.9% and the inhibition at 10 µg/mL is -1.8%.

The molecule `O=c1oc(COc2ccccc2)nc2ccc(Cl)cc12` [3c, 6-Chloro-2-(phenoxymethyl)-4H-3,1-benzoxazin-4-one] came in with a melting point of 113.1 to 115.2 °C. Further, in the data set with rape Brassica napus (setting [2]), the inhibition at 1 µg/mL was 45.4% and the inhibition at 10 µg/mL turned out to be 83.9%. In the data set on rape Brassica napus (setting [3]), the inhibition at 1 µg/mL was 26.7% and the inhibition at 10 µg/mL came to 64.6%. Also, in data set [1] (setting [2]), the inhibition at 1 µg/mL was found to be 23.7% and the inhibition at 10 µg/mL was determined as 62.6%. Moreover, in data set [1] (setting [3]), the inhibition at 1 µg/mL amounted to 0.3% and the inhibition at 10 µg/mL was 46.7%.

In the case of `O=c1oc(COc2ccc(Cl)cc2)nc2cc(Cl)ccc12` [3j, 7-Chloro-2-((4-chlorophenoxy)methyl)-4H-3,1-benzoxazin-4-one], the melting point is 189.9 to 191.8 °C. Also, in the data set with rape Brassica napus (setting [2]), the inhibition at 1 µg/mL is 91.4% and the inhibition at 10 µg/mL is 100%. Besides, in the data set on rape Brassica napus (setting [3]), the inhibition at 1 µg/mL was 59.5% and the inhibition at 10 µg/mL turned out to be 91.1%. Further, in data set [1] (setting [2]), the inhibition at 1 µg/mL is 43.6% and the inhibition at 10 µg/mL is 92.3%. Further, in data set [1] (setting [3]), the inhibition at 1 µg/mL turned out to be 12.8% and the inhibition at 10 µg/mL was found to be 31.1%.

In the case of `COc1cc2nc(COc3ccc(Cl)cc3)n(C)c(=O)c2cc1OC` [4o, 2-((4-Chlorophenoxy)methyl)-6,7-dimethoxy-3-methyl-3H-quinazolin-4-one], the melting point lay within 201.8 to 202.7 °C. Moreover, in the data set with rape Brassica napus (setting [2]), the inhibition at 1 µg/mL was 25.1% and the inhibition at 10 µg/mL came out at 34.8%. Besides, in the data set on rape Brassica napus (setting [3]), the inhibition at 1 µg/mL amounted to 1.9% and the inhibition at 10 µg/mL was -6.8%. Further, in data set [1] (setting [2]), the inhibition at 1 µg/mL is 13.3% and the inhibition at 10 µg/mL was found to be 17.3%. In data set [1] (setting [3]), the inhibition at 1 µg/mL was 8.9% and the inhibition at 10 µg/mL was determined as 5.9%.

`Nn1c(COc2ccc(Cl)cc2Cl)nc2ccc(Cl)cc2c1=O` [4h, 3-Amino-6-chloro-2-((2,4-dichlorophenoxy)methyl)-3H-quinazolin-4-one] registered a melting point of 223.6 to 224.9 °C. In the data set on rape Brassica napus (setting [2]), the inhibition at 1 µg/mL is 7.5% and the inhibition at 10 µg/mL was determined as 22%. Besides, in the data set with rape Brassica napus (setting [3]), the inhibition at 1 µg/mL is 10.7% and the inhibition at 10 µg/mL came out at 19.9%. Besides, in data set [1] (setting [2]), the inhibition at 1 µg/mL is 20% and the inhibition at 10 µg/mL stood at 37.5%. Also, in data set [1] (setting [3]), the inhibition at 1 µg/mL is -42% and the inhibition at 10 µg/mL is -12.7%.

On to `Nn1c(COc2ccc(Cl)cc2)nc2cccc(Cl)c2c1=O` [4a, 3-Amino-5-chloro-2-((4-chlorophenoxy)methyl)-3H-quinazolin-4-one], for which the melting point fell in the range of 191.8 to 193.3 °C. For the same molecule, in the data set with rape Brassica napus (setting [2]), the inhibition at 1 µg/mL stood at 28.5% and the inhibition at 10 µg/mL is 41.5%. Moreover, in the data set on rape Brassica napus (setting [3]), the inhibition at 1 µg/mL is 13.2% and the inhibition at 10 µg/mL was -5.9%. Moreover, in data set [1] (setting [2]), the inhibition at 1 µg/mL came out at 57.9% and the inhibition at 10 µg/mL was found to be 43.1%. In data set [1] (setting [3]), the inhibition at 1 µg/mL is 8.9% and the inhibition at 10 µg/mL stood at 14.9%.

Molecule `COc1cc2nc(COc3ccc(F)cc3)oc(=O)c2cc1OC` [3w, 2-((4-Fluorophenoxy)methyl)-6,7-dimethoxy-4H-3,1-benzoxazin-4-one] came in with a melting point of 144.7 to 146 °C. Also, in the data set on rape Brassica napus (setting [2]), the inhibition at 1 µg/mL turned out to be 35.2% and the inhibition at 10 µg/mL is 79.7%. Further, in the data set on rape Brassica napus (setting [3]), the inhibition at 1 µg/mL was 12.8% and the inhibition at 10 µg/mL was determined as 41.4%. In data set [1] (setting [2]), the inhibition at 1 µg/mL was determined as 37.5% and the inhibition at 10 µg/mL was determined as 64.5%. In addition, in data set [1] (setting [3]), the inhibition at 1 µg/mL was found to be 12.8% and the inhibition at 10 µg/mL amounted to 16.4%.

As to `Cn1c(COc2ccc(Cl)cc2)nc2ccc(Cl)cc2c1=O` [4l, 6-Chloro-2-((4-chlorophenoxy)methyl)-3-methyl-3H-quinazolin-4-one], the melting point fell in the range of 179.9 to 181.2 °C. Further, in the data set with rape Brassica napus (setting [2]), the inhibition at 1 µg/mL is 28.5% and the inhibition at 10 µg/mL stood at 42.2%. Moreover, in the data set on rape Brassica napus (setting [3]), the inhibition at 1 µg/mL stood at 1.5% and the inhibition at 10 µg/mL stood at 10.8%. Besides, in data set [1] (setting [2]), the inhibition at 1 µg/mL was determined as 24.7% and the inhibition at 10 µg/mL is 33.7%. For the same molecule, in data set [1] (setting [3]), the inhibition at 1 µg/mL turned out to be 8.9% and the inhibition at 10 µg/mL came out at 11.9%.

In the case of `Cn1c(COc2ccc(Cl)cc2)nc2cc(Cl)ccc2c1=O` [4m, 7-Chloro-2-((4-chlorophenoxy)methyl)-3-methyl-3H-quinazolin-4-one], the melting point lay within 202.4 to 203.9 °C. In addition, in the data set on rape Brassica napus (setting [2]), the inhibition at 1 µg/mL amounted to 26.2% and the inhibition at 10 µg/mL stood at 27.9%. In addition, in the data set on rape Brassica napus (setting [3]), the inhibition at 1 µg/mL stood at 1.5% and the inhibition at 10 µg/mL was -0.5%. In data set [1] (setting [2]), the inhibition at 1 µg/mL is 14.8% and the inhibition at 10 µg/mL worked out at 29.2%. In data set [1] (setting [3]), the inhibition at 1 µg/mL came to 7.5% and the inhibition at 10 µg/mL is 14.9%.

For `Cc1ccc2nc(COc3ccc(Cl)cc3)oc(=O)c2c1` [3k, 2-((4-Chlorophenoxy)methyl)-6-methyl-4H-3,1-benzoxazin-4-one], the melting point lay within 143.7 to 145.6 °C. In addition, in the data set on rape Brassica napus (setting [2]), the inhibition at 1 µg/mL was found to be 84.7% and the inhibition at 10 µg/mL turned out to be 100%. Moreover, in the data set on rape Brassica napus (setting [3]), the inhibition at 1 µg/mL came out at 29.3% and the inhibition at 10 µg/mL came out at 82.1%. In data set [1] (setting [2]), the inhibition at 1 µg/mL is 48.4% and the inhibition at 10 µg/mL was found to be 77.1%. Also, in data set [1] (setting [3]), the inhibition at 1 µg/mL stood at 18.2% and the inhibition at 10 µg/mL was -8.8%.

On to `O=c1oc(COc2ccc(F)cc2)nc2ccccc12` [3r, 2-((4-Fluorophenoxy)methyl)-4H-3,1-benzoxazin-4-one], for which the melting point fell in the range of 112.5 to 114.6 °C. In addition, in the data set with rape Brassica napus (setting [2]), the inhibition at 1 µg/mL is 81.4% and the inhibition at 10 µg/mL worked out at 99.6%. In the data set on rape Brassica napus (setting [3]), the inhibition at 1 µg/mL was found to be 55.3% and the inhibition at 10 µg/mL is 87%. Also, in data set [1] (setting [2]), the inhibition at 1 µg/mL was 62.6% and the inhibition at 10 µg/mL is 96.8%. In data set [1] (setting [3]), the inhibition at 1 µg/mL amounted to 42.8% and the inhibition at 10 µg/mL turned out to be 57.8%.

`O=c1oc(COc2ccccc2)nc2cc(Cl)ccc12` [3d, 7-Chloro-2-(phenoxymethyl)-4H-3,1-benzoxazin-4-one] showed a melting point of 117.3 to 119.9 °C. Besides, in the data set on rape Brassica napus (setting [2]), the inhibition at 1 µg/mL came out at 75.5% and the inhibition at 10 µg/mL was 93.5%. In the data set with rape Brassica napus (setting [3]), the inhibition at 1 µg/mL was found to be 44.9% and the inhibition at 10 µg/mL amounted to 71.6%. For the same molecule, in data set [1] (setting [2]), the inhibition at 1 µg/mL was 41.9% and the inhibition at 10 µg/mL worked out at 62.3%. Moreover, in data set [1] (setting [3]), the inhibition at 1 µg/mL was -23.6% and the inhibition at 10 µg/mL came out at 28.3%.

One may read the melting point as the temperature of the solid-liquid transition. As usually defined, the inhibition is the relative decrease from the control value, in per cent.
